These results are taken from patent US20080311589A1, “METHOD OF HIGH-THROUGHPUT SCREENING OF MOLECULES AND COMPOUNDS FOR THEIR EFFECTS ON BIOLOGICAL AND CHEMICAL PROCESSES” (priority 1999, published 2008).

The nature of test [1]: UV spectral shift binding assay with 2. The note with it: metal ion concentration inducing a 50% shift in λmax of UV shoulder of 2 from 297 nm to 310 nm ([2] = 20 μM); read-out: EC50UV 2. As for the experimental part: (§1) UV SPECTRAL SHIFT BINDING ASSAY: A quartz cuvette with 1 mL deionized, distilled water was used as a blank on a Cary 1E UV-visible spectrophotomer. 1a or 2 was diluted to a final concentration of 15 μM or 20 μM, respectively, and the UV spectrum from 240 nm to 320 nm was measured. […] Upon addition of certain transition metals (Table 1), this peak shifted such that the new λmax was 273 nm and 310 nm, for 1a and 2, respectively. […] For the calculation of correlation coefficients, all values less than 7.5 μM were taken to be 7.5 μM, all values greater than 1000 μM were taken to be 1000 μm and all values less than 10 μM were taken to be 10 μM.

Test [2] relates to p3TPLux in 6F mink lung cells. The test can be described thus: antagonism of p3TPLux activation in 6F mink lung cells. The conditions noted are these: for suppression of reporter activation by copper: TGFβ-responsive reporter; for suppression of reporter activation by 1a / suppression of reporter activation by 2 / suppression of reporter activation by TGFβ: TGFβ-responsive reporter in mink lung epithelial cells. The test is classed as cell-based. As for the experimental part:
LUCIFERASE ASSAYS: Our transient transfection luciferase assay was described previously by us (Stockwell et al., Chem Biol 5:385, 1998). Briefly, 100,000 Mv1Lu mink lung epithelial cells were transiently transfected in 12-well dishes with 400 ng p3TPLux or pNFkB-Lux, with or without 50 ng pFC-MEKK, in 300 μL minimal essential medium with non-essential amino acids. The DEAE-dextran/chloroquine/DMSO methods was used for transfection (Stockwell et al., Chem Biol 6:71, 1999). After cell lysis in 120 μL lysis buffer, a Beckman LS 6500 liquid scintillation counter was used in single photon mode to quantitate luminescence. For detection of luciferase activity in 6F cells (including the primary screen), 20,000 6F cells were seeded in 50 μL of 10% mink medium in each well of a white 384-well plate (Nalge Nune International; Naperville, Ill.; cat#164610) using a Multidrop 384 liquid dispenser (Lab Systems; Helsinki, Finland). After 16 hours, medium was removed using a 24 channel wand (V&P Scientific, Inc.; San Diego, Calif.; cat#VP 186L), the cells were washed with 75 μL of 0.2% mink medium (containing 0.2% FBS), and reagents were added in 40 μL of 0.2% medium. For the primary screen, reagents were added by pin transfer using 384 polypropylene pin arrays (Matrix Technologies; Hudson, N.H.). After 24 hours, the cells were cooled on ice and washed twice with 75 μL Hanks Balanced Salt Solution (HBSS; GibcoBRL; cat#24020-117). Then 20 μL lysis buffer (25 mM glycylglycine (Sigma; cat#E-0396), 1% Triton X-100 (Sigma; cat#T-9284), 1 mM dithiothreitol (DTT; Sigma; cat#D-5545), 1 mM phenylmethylsulfonyl fluoride (PMSF; Sigma; cat#P-7626)) was added to each well with a Multidrop. After incubating the cells for five minutes on ice, 20 μL of ATP/luciferin solution was added (25 mM glycylglycine pH 7.8, 15 mM MgSO4, 4 mM EGTA, 6.25 mM K2HPO4 (Sigma; cat#P5504) pH 7.8, 5 mM DTT, 75 μM D-luciferin (Sigma, cat# L-9504, 2 mM ATP (Sigma; cat#A-7699)). Light output was immediately measured with an Analyst 384-well platereader (LJL), with 0.5 second counting time per well.

A short description of test [3]: UV spectral shift binding assay with 1a. The conditions noted are these: metal ion concentration inducing a 50% shift in λmax of UV shoulder of 1a ([1a] = 15 μM) from 292 nm to 273 nm; estimate of dissociation constant; read-out: EC50UV 1a. As for the experimental part: as §1
The test system of test [4] is p3TPLux TGFβ-responsive reporter in 6F mink lung cells. The test can be described thus: luciferase assay, stably transfected p3TPLux. The test is classed as cell-based. The conditions noted are these: substance alone. How it is done: FIG. 19 graphs the dose-response of transcriptional activation of compounds 1a and 2 in the presence (*) or absence (•) of 400 pM TGFβ1. 20,000 6F mink lung cells ( ) were seeded in 384 well plates, allowed to attach for 16 hours in 10% mink medium, and were treated with the indicated concentrations of 1a or 2.
We screened more than 16,000 chemical compounds to identify those that specifically activated expression of a reporter gene (luciferase) under the control of TGFβ-responsive elements in stably transfected mammalian cells (mink lung epithelial cells). […] Given the structural similarity of compounds 1a-c, we expected that all three were operating through a common mechanism. We therefore continued testing on only one, compound 1a, as representative of the group.

The mark [5] stands for this setting: metal ion concentration inhibiting 50% of the activation of p3TPLux by 1a ([1a] = 3 μM) in 6F mink lung cells, read-out: EC50SU 1a.
[6] abbreviates: metal ion concentration inhibiting 50% of the activation of p3TPLux by 2 ([2] = 64 μM) in 6F mink lung cells, read-out: EC50Su 2.

Where two headings read alike, the source gives them in different places.

For the compound `[Cl][Fe]([Cl])[Cl]` [Fe^3+, FeCl3], the EC50 in test [1] was less than 10 µM; in test [2] (setting [5]), 2 µM; in test [2] (setting [6]) it was 9 µM; in test [3], less than 7.5 µM. For the same compound, the “suppression of reporter activation by copper” value (“suppression … by copper” for short) in test [2] is reported as “did not”. Also, in test [2], the “suppression of reporter activation by 1a” value is “completely suppressed”. In addition, the “suppression of reporter activation by 2” value in test [2] is “completely suppressed”. Besides, the “suppression of reporter activation by TGFβ” value (“suppression … by TGFβ” below) in test [2] was “no effect”.
With `[Cl-].[Cl-].[Mg+2]` [Mg^2+, MgCl2], the EC50 in test [1], in test [2] (setting [5]), in test [2] (setting [6]) and in test [3] was greater than 1000 µM throughout.
Regarding `[Cl-].[Cl-].[Zn+2]` [Zn^2+, ZnCl2], the EC50 in test [1] is 500 µM; in test [2] (setting [5]) it was 0.5 µM; in test [2] (setting [6]) it was greater than 300 µM; in test [3], less than 7.5 µM. Also, the “suppression … by copper” value in test [2] is “suppressed the ability of copper to activate reporter gene expression”. Besides, in test [2], the “suppression of reporter activation by 1a” value is listed as “suppressed transcriptional activation by 1a”. For the same compound, the “suppression of reporter activation by 2” value in test [2] is recorded as “no effect on activation by 2 or TGFβ”. Further, the “suppression … by TGFβ” value in test [2] was “no effect on activation by 2 or TGFβ”.
Regarding `CC(=O)[O-].CC(=O)[O-].[Ba+2]` [Ba^2+, Ba(OAc)2], the EC50 in test [1], in test [2] (setting [5]), in test [2] (setting [6]) and in test [3] was greater than 1000 µM in each case.
As for `Oc1cccc2cccnc12` [8-hydroxyquinoline, 8-quinolinol], the “activation of the TGFβ-responsive reporter gene” value in test [4] is listed as “did not activate our reporter”.
As to `[Cl-].[K+]` [K^+, KCl], the EC50 in test [1], in test [2] (setting [5]), in test [2] (setting [6]) and in test [3] was greater than 1000 µM each time.
As for `O.O.O.O.O.O.[Cl-].[Cl-].[Co+2]` [Co^2+, CoCl2.6H2O], in test [2], the “suppression … by copper” value is “did not”, the “suppression of reporter activation by 1a” value is “completely suppressed”, the “suppression of reporter activation by 2” value is “completely suppressed” and the “suppression … by TGFβ” value was “no effect”.
As to `OO` [Compound H2O2, H2O2], the “alteration of the effect of 1a, 2, or copper on the reporter” value in test [2] is listed as “neither agent altered the effect of 1a, 2, or copper”.
On the same count and under the same terms, next, `CC(C)(C#N)N=NC(C)(C)C#N` [AIBN, 2,2′-azobis (2-methylpropinonitrile)]: “neither agent altered the effect of 1a, 2, or copper”.
In the case of `[Cl-].[Cl-].[Co+2]` [Co^2+, CoCl2.6H2O], the EC50 is 50 µM in test [1], 10 µM in test [2] (setting [5]), 30 µM in test [2] (setting [6]) and 100 µM in test [3].
As to `[Cl-].[Na+]` [Na^+, NaCl], the EC50 in test [1], in test [2] (setting [5]), in test [2] (setting [6]) and in test [3] was greater than 1000 µM each time.
Consider `O.O.O.O.O.O.O=S(=O)([O-])[O-].[Ni+2]` [Ni^2+, NiSO4.6H2O], for which the EC50 in test [1] is 500 µM. Besides, in test [2], the “suppression … by copper” value is reported as “did not”, the “suppression of reporter activation by 1a” value is on record as “suppressed transcriptional activation by 1a”, the “suppression of reporter activation by 2” value is recorded as “no effect on activation by 2 or TGFβ” and the “suppression … by TGFβ” value is given as “no effect on activation by 2 or TGFβ”. For the same compound, the EC50 in test [2] (setting [5]) is 10 µM. Further, the EC50 in test [3] was 280 µM.
Take `[Ca+2].[Cl-].[Cl-]` [Ca^2+, CaCl2.2H2O]: the EC50 in test [1], in test [2] (setting [5]), in test [2] (setting [6]) and in test [3] was greater than 1000 µM in each case.
With `[Cl][Al]([Cl])[Cl]` [Al^3+, A1C13], in test [1], the EC50 is 200 µM. In test [2], the “suppression … by copper” value is on record as “did not”, the “suppression of reporter activation by 1a” value is on record as “suppressed transcriptional activation by 1a”, the “suppression of reporter activation by 2” value was “no effect on activation by 2 or TGFβ” and the “suppression … by TGFβ” value is recorded as “no effect on activation by 2 or TGFβ”. Moreover, the EC50 in test [2] (setting [5]) was 1 µM. In addition, the EC50 in test [2] (setting [6]) is greater than 300 µM. Moreover, in test [3], the EC50 was 30 µM.
As to `O.O.O.O.[Cl][Mn][Cl]` [Mn^2+, MnC12.4H2O], the EC50 in test [1] was greater than 1000 µM. Besides, in test [2], the “suppression … by copper” value is given as “did not”, the “suppression of reporter activation by 1a” value is reported as “suppressed transcriptional activation by 1a”, the “suppression of reporter activation by 2” value is “no effect on activation by 2 or TGFβ” and the “suppression … by TGFβ” value is recorded as “no effect on activation by 2 or TGFβ”. In addition, the EC50 in test [2] (setting [5]) was 200 µM. Moreover, the EC50 in test [2] (setting [6]) was greater than 300 µM. In addition, the EC50 in test [3] is 80 µM.
